In ChEMBL document CHEMBL5046216, “Disrupting Tryptophan in the Central Hydrophobic Region Selectively Mitigates Immunomodulatory Activities of the Innate Defence Regulator Peptide IDR-1002” (J Med Chem, 2021):
Calls of active or inactive are those of the source. The calls are words filed in the database; no cut-off is given here.

Legend:
HBEC3-KT [1] = assay: Antiinflammatory activity in human HBEC3-KT cells assessed as fold increase in IL-1RA expression at 10 uM measured after 24 hrs by ELISA relative to control; format: functional
HBEC3-KT [2] = assay: Antiinflammatory activity in human HBEC3-KT cells assessed as effect on MCP1 expression measured after 24 hrs by ELISA relative to control; format: functional, cell-based
[3] = Retention time of the compound by HPLC analysis; format: physicochemical
HBEC3-KT [4] = assay: Cytotoxicity against human HBEC3-KT incubated for 24 hrs by LDH assay; format: functional
HBEC3-KT [5] = assay: Antiinflammatory activity in INFgamma-induced MCP1 expressed in human HBEC3-KT cells assessed as fold change measured after 24 hrs by ELISA relative to control; format: functional
HBEC3-KT [6] = assay: Immunomodulatory activity in human HBEC3-KT cells assessed as suppression of INFgamma-induced IL-33 at 10 uM preincubated for 30 mins followed by INFgamma stimulation and measured after 24 hrs by Western blot analysis; format: functional; settings: 0.5 h
HBEC3-KT [7] = assay: Antiinflammatory activity in human HBEC3-KT cells assessed as fold increase in STC1 expression at 10 uM measured after 24 hrs by ELISA relative to control; format: functional

Row | Retention_time [3] [min] | Substance | fold change (FC) (HBEC3-KT [1]) | Activity (HBEC3-KT [2]) | Activity (HBEC3-KT [4]) | fold change (FC) (HBEC3-KT [5]) | Activity (HBEC3-KT [6]) [%] | fold change (FC) (HBEC3-KT [7])
1 | 16.06 | H-VRRWLIVWRIRK-OH | 2.6 | inactive | <=15% | 2.9 | 70 | 6
2 | 14.48 | H-VQRWLIVIRIRK-OH | – | – | 50% | – | – | –
